Reference: US7098343B2, “Compound” (Sterix, Limited, priority 2001, dated 2006)
Each block holds one compound with its values, some of them ahead of it.

What was measured:
[1] = target: T1, aromatase (Homo sapiens, UniProt P11511); test: Aromatase activity in JEG3 choriocarcinoma cells (Protocol 6); format: cell-based
T1 construct: Aromatase activity is measured in JEG3 choriocarcinoma cells, obtained from the ATCC; host or cells: JEG3 choriocarcinoma cells (intact monolayers)
T1 sequence (P11511 1-503): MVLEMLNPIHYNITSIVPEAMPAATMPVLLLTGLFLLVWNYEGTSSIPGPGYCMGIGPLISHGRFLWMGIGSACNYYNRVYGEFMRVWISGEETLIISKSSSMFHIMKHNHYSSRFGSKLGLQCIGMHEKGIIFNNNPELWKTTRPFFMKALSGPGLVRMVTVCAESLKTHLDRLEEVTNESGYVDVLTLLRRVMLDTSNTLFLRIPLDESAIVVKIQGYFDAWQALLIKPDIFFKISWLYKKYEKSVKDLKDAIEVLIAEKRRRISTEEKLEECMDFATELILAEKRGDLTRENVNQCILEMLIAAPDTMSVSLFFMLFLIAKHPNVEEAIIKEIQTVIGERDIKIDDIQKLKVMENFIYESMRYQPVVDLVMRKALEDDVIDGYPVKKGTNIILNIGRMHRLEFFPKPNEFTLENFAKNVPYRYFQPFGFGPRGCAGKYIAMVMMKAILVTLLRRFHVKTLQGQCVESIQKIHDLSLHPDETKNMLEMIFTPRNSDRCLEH

[2] = target: T2, steroid sulphatase (Homo sapiens, UniProt P08842); conditions: cited from earlier work
T2 sequence (P08842 22-583): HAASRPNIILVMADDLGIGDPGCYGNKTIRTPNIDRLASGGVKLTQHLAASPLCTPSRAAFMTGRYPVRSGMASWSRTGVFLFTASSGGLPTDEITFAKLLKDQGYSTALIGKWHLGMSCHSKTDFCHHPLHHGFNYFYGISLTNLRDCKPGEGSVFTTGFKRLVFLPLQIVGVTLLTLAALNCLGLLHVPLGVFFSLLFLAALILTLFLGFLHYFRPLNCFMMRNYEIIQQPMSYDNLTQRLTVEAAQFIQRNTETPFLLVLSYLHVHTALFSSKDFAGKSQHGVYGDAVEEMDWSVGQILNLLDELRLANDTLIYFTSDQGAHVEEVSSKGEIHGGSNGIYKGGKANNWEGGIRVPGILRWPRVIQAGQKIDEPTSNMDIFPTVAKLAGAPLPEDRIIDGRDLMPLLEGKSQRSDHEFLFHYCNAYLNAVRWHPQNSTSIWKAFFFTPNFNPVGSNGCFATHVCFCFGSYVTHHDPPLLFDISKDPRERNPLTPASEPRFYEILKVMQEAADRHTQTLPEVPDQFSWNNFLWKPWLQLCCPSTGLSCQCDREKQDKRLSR

[3] = target: T2, steroid sulphatase; test: Inhibition of steroid sulphatase activity in placental microsomes (Protocol 2); format: biochemical; design: host or cells: JEG3 choriocarcinoma cells (intact monolayers); conditions: read-out: SULPHATASE % inhibition at 10 μM in placental microsomes
Description: Inhibition of Steroid Sulphatase Activity in Placental Microsomes
Sulphatase-positive human placenta from normal term pregnancies are thoroughly minced with scissors and washed once with cold phosphate buffer (pH 7.4, 50 mM) then re-suspended in cold phosphate buffer (5 ml/g tissue). Homogenisation is accomplished with an Ultra-Turrax homogeniser, using three 10 second bursts separated by 2 minute cooling periods in ice. Nuclei and cell debris are removed by centrifuging (4° C.) at 2000 g for 30 minutes and portions (2 ml) of the supernatant are stored at […] The protein concentration of the supernatants is determined by the method of Bradford (Anal. Biochem., 72, 248-254 (1976)).
Incubations (1 ml) are carried out using a protein concentration of […], substrate concentration of […] [6,7-3H]oestrone-3-sulphate (specific activity 60 Ci/mmol from New England Nuclear, Boston, Mass., U.S.A.) and an incubation time of 20 minutes at 37° C. […] A portion (2 ml) of the organic phase was removed, evaporated and the 3H and 14C content of the residue determined by scintillation spectrometry. The mass of oestrone-3-sulphate hydrolysed is calculated from the 3H counts obtained (corrected for the volumes of the medium and organic phase used, and for recovery of [14C]oestrone added) and the specific activity of the substrate.

[4] = tested on: uterus; conditions: cited from earlier work
[5] = target: T3, E1-STS (Homo sapiens, UniProt P08842); conditions: 0.1 nM; cited from earlier work
T3 construct: host or cells: intact MCF-7 cells (endogenous enzyme)
T3 sequence (P08842 22-583): T2 sequence (P08842 22-583)

[6] = target: T4, rat liver DHA-STS (Rattus norvegicus, UniProt P15589); conditions: administered orally or subcutaneously; cited from earlier work
T4 construct: host or cells: rat liver after oral or subcutaneous dosing
T4 sequence (P15589 20-577): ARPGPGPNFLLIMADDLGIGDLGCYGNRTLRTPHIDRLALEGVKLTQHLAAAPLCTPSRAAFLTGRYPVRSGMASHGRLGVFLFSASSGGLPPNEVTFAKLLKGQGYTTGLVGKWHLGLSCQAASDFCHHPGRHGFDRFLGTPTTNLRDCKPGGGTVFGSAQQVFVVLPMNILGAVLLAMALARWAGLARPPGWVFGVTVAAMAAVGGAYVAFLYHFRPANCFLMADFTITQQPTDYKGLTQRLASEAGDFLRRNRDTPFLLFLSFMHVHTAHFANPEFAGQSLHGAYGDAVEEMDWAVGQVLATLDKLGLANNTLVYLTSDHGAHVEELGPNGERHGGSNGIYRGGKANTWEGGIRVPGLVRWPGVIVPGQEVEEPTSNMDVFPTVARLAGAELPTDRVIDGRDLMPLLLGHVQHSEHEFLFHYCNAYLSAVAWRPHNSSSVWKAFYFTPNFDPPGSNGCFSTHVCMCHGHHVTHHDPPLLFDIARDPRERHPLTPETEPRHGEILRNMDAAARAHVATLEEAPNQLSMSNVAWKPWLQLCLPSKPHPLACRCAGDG

[7] = target: T5, rat liver E1-STS (Rattus norvegicus, UniProt P15589); conditions: administered orally or subcutaneously; cited from earlier work
T5 construct: host or cells: rat liver after oral or subcutaneous dosing
T5 sequence (P15589 20-577): T4 sequence (P15589 20-577)

AROMATASE inhibition, in words [1]: (No inhibition seen)
Compound: NS(=O)(=O)Oc1ccc(-c2cc(=O)c3cc(OS(N)(=O)=O)ccc3o2)cc1 [Compound H342F1]

Compound: oestrone-3-S-sulphamate
steroid sulphatase inhibition relative to EMATE, in words [2]: weaker non-time-dependent inactivators

inhibition at 10 µM [3]: 14%
Compound: NS(=O)(=O)Oc1ccc(Cn2cncn2)cc1 [STX270, Sulfamic Acid 4-[1,2,4]triazol-1-ylmethylphenyl ester]

Compound: oestrone-3-N-sulphamate
steroid sulphatase inhibition relative to EMATE, in words [2]: weaker non-time-dependent inactivators

Compound: CC12CCC3c4ccc(OS(N)(=O)=O)cc4CCC3C1CCC2=O (centres unmarked) [EMATE, oestrone-3-O-sulphamate]
oral uterotrophic activity relative to estradiol ([4]; rats, oral): 100 times
inhibition of E1-STS activity in intact MCF-7 cells [5]: more than 99%
inhibition of rat liver DHA-STS activity [6]: 99%
inhibition of rat liver E1-STS activity [7]: 99%

Compound: COc1cc2c(cc1OS(N)(=O)=O)CC[C@@H]1[C@@H]2CC[C@]2(C)C(=O)CC[C@@H]12 [2-methoxyoestrone-3-O-sulphamate]
oestrogenicity, in words ([4]; rat, in vivo): devoid of oestrogenicity
steroid sulphatase inhibition relative to EMATE, in words [2]: equipotent with EMATE

melting point: 228 to 230 °C
Compound: N#Cc1ccc(N(Cc2ccc(O)cc2)n2cnnc2)cc1 [STX265, 4-[(4-Hydroxylbenzyl)-[1,2,4]triazol-4-ylamino]benzonitrile]
